Data: patent publication US8299302B2 (priority 2007, dated 2012)
Read-outs that look alike come from different tables or passages of the source.

Legend:
Sphaerotheca fuliginea = experiment: Sphaerotheca test (cucumber) / protective; type: in vivo; conditions: Podosphaera fuliginea, 168 h, read-out: efficacy
Method: (§1) To produce a suitable preparation of active compound, 1 part by weight of active compound is mixed with the stated amounts of solvent and emulsifier, and the concentrate is diluted with water to the desired concentration.
(§2) To test for protective activity, young plants are sprayed with the active compound preparation at the stated application rate. After the spray coating has dried, the plants are inoculated with an aqueous spore suspension of Sphaerotheca fuliginea. The plants are then placed in a greenhouse at about 23° C. and a relative atmospheric humidity of about 70%.
Evaluation is carried out 7 days after the inoculation. 0% means an efficacy which corresponds to that of the control, whereas an efficacy of 100% means that no infection is observed.

Botrytis cinerea = experiment: Botrytis test (bean) / protective; type: in vivo; conditions: 48 h, read-out: efficacy
Method: as §1
To test for protective activity, young plants are sprayed with the active compound preparation at the stated application rate. After the spray coating has dried on, 2 small pieces of agar overgrown with Botrytis cinerea are placed on each leaf. The inoculated plants are then placed in a darkened chamber at about 20° C. and 100% relative atmospheric humidity.
Two days after the inoculation the size of the infected spots on the leaves is evaluated. 0% means an efficacy which corresponds to that of the control, whereas an efficacy of 100% means that no infection is observed.

Podosphaera leucotricha = experiment: Podosphaera test (apple) / protective; type: in vivo; conditions: 240 h, read-out: efficacy
Method: as §1
as §2, with “dried on,” for “dried,”, “the apple mildew pathogen Podosphaera leucotricha.” for “Sphaerotheca fuliginea.”
(§3) Evaluation is carried out 10 days after the inoculation. 0% means an efficacy which corresponds to that of the control, whereas an efficacy of 100% means that no infection is observed.

Puccinia recondita = experiment: Puccinia test (wheat) / protective; type: in vivo; conditions: 240 h, read-out: efficacy
Method: as §1
To test for protective activity, young plants are sprayed with the active compound preparation at the stated application rate. After the spray coating has dried on, the plants are sprayed with a conidia suspension of Puccinia recondita. The plants remain in an incubation cabin at 20° C. and 100% relative atmospheric humidity for 48 hours.
The plants are then placed in a greenhouse at a temperature of about 20° C. and a relative atmospheric humidity of 80% to promote the development of rust pustules.
as §3

Uromyces appendiculatus = experiment: Uromyces test (bean) / protective; type: in vivo; conditions: 240 h, read-out: efficacy
Method: as §1
To test for protective activity, young plants are sprayed with the active compound preparation at the stated application rate. After the spray coating has dried on, the plants are inoculated with an aqueous spore suspension of the bean rust pathogen Uromyces appendiculatus and then remain in an incubation cabin at about 20° C. and 100% relative atmospheric humidity for 1 day.
The plants are then placed in a greenhouse at about 21° C. and a relative atmospheric humidity of about 90%.
as §3

[1] = wheat plants, protective spray, active compound concentration 1000 ppm, evaluation 10 days after inoculation
[2] = bean plants, protective spray, active compound concentration 10 ppm, evaluation 10 days after inoculation
[3] = cucumber plants, protective spray, active compound concentration 100 ppm, evaluation 7 days after inoculation
[4] = bean plants, protective spray, active compound concentration 250 ppm, evaluation two days after inoculation
[5] = apple plants, protective spray, active compound concentration 100 ppm, evaluation 10 days after inoculation

## Cc1cc(Oc2ccc(C3CCCCC3)cc2)c(C)cc1N=CN(C)C(C)C [Compound 39, N′-{4-[4-cyclohexyl-phenoxy]-2,5-dimethylphenyl}-N-isopropyl-N-methylimidoformamide]
logP (acidic, pH 2.3); pH 2.3, logP acidic, acidic
  logP: 3.2

## CC(=O)c1ccccc1-c1ccc(Oc2cc(C)c(/N=C/N3CCCCC3)cc2C)cc1 [Compound 22]
Sphaerotheca fuliginea
  pest or weed control at 100 ppm: ≥ 70%
Botrytis cinerea
  pest or weed control at 250 ppm: ≥ 70%
logP (acidic, pH 2.3); pH 2.3
  logP: 3.52
Podosphaera leucotricha
  pest or weed control at 100 ppm: ≥ 70%

## Cc1cc(Oc2ccc(C3CCCC3)cc2)c(C)cc1/N=C/N1CCCCC1C (centres unmarked) [Compound 34, 4-(4-cyclopentylphenoxy)-2,5-dimethyl-N-[(1E)-(2-methylpiperidin-1-yl)methylene]aniline]
Puccinia recondita; [1]
  pest or weed control at 1000 ppm: ≥ 70%
logP (acidic, pH 2.3); pH 2.3, logP acidic, acidic
  logP: 3.22

## Cc1cc(Oc2ccc(C3CCCCC3)cc2)c(C)cc1/N=C/N1CCCCC1 [Compound 41, 4-(4-cyclohexylphenoxy)-2,5-dimethyl-N-[(1E)-piperidin-1-ylmethylene]aniline]
Puccinia recondita; [1]
  pest or weed control at 1000 ppm: ≥ 70%
Uromyces appendiculatus; [2]
  pest or weed control at 10 ppm: ≥ 70%
Sphaerotheca fuliginea; [3]
  pest or weed control at 100 ppm: ≥ 70%
Botrytis cinerea; [4]
  pest or weed control at 250 ppm: ≥ 70%
logP (acidic, pH 2.3); pH 2.3, logP acidic, acidic
  logP: 3.46
Podosphaera leucotricha; [5]
  pest or weed control at 100 ppm: ≥ 70%

## CCN(C)C=Nc1cc(C)c(Oc2ccc(C3CCCCC3)cc2)cc1C [Compound 38, N′-{4-[4-cyclohexylphenoxy]-2,5-dimethylphenyl}-N-ethyl-N-methylimidoformamide]
Puccinia recondita; [1]
  pest or weed control at 1000 ppm: ≥ 70%
Uromyces appendiculatus; [2]
  pest or weed control at 10 ppm: ≥ 70%
Sphaerotheca fuliginea; [3]
  pest or weed control at 100 ppm: ≥ 70%
Botrytis cinerea; [4]
  pest or weed control at 250 ppm: ≥ 70%
logP (acidic, pH 2.3); pH 2.3, log P (pH 2.3), pH 2.3
  logP: 2.99
logP (acidic, pH 2.3); pH 2.3, logP acidic, acidic
  logP: 2.99
Podosphaera leucotricha; [5]
  pest or weed control at 100 ppm: ≥ 70%

## Cc1cc(Oc2ccc(-c3ccccc3OCC(C)C)cc2)c(C)cc1/N=C/N1CCCCC1 [Compound 28, 4-[(2′-isobutoxybiphenyl-4-yl)oxy]-2,5-dimethyl-N-[(1E)-piperidin-1-ylmethylene]aniline]
logP (acidic, pH 2.3); pH 2.3, logP acidic, acidic
  logP: 3.44

## CCN(C)C=Nc1cc(C)c(Oc2ccc(-c3ccc(C(C)(C)C)cc3)cc2)cc1C [Compound 7, N′-(2,5-dimethyl-4-{[4′-(tert-butyl)biphenyl-4-yl]oxy}phenyl)-N-ethyl-N-methylimidoformamide]
Sphaerotheca fuliginea; [3]
  pest or weed control at 100 ppm: ≥ 70%
Botrytis cinerea; [4]
  pest or weed control at 250 ppm: ≥ 70%
logP (acidic, pH 2.3); pH 2.3, logP acidic, acidic
  logP: 3.41
Podosphaera leucotricha; [5]
  pest or weed control at 100 ppm: ≥ 70%

## CCN(C)C=Nc1cc(C)c(Oc2ccc(-c3ccccc3OC)cc2)cc1C [Compound 19]
Puccinia recondita
  pest or weed control at 1000 ppm: ≥ 70%
Uromyces appendiculatus
  pest or weed control at 10 ppm: ≥ 70%
Sphaerotheca fuliginea
  pest or weed control at 100 ppm: ≥ 70%
Botrytis cinerea
  pest or weed control at 250 ppm: ≥ 70%
logP (acidic, pH 2.3); pH 2.3
  logP: 2.49

## Cc1cc(Oc2ccc(-c3ccccc3F)cc2)c(C)cc1/N=C/N1CCCCC1 [Compound 21]
Puccinia recondita
  pest or weed control at 1000 ppm: ≥ 70%
logP (acidic, pH 2.3); pH 2.3
  logP: 2.98

## CCN(C)C=Nc1cc(C)c(Oc2ccc(-c3ccccc3C(F)(F)F)cc2)cc1C [Compound 14]
Puccinia recondita
  pest or weed control at 1000 ppm: ≥ 70%
Sphaerotheca fuliginea
  pest or weed control at 100 ppm: ≥ 70%
Botrytis cinerea
  pest or weed control at 250 ppm: ≥ 70%
logP (acidic, pH 2.3); pH 2.3
  logP: 2.77
Podosphaera leucotricha
  pest or weed control at 100 ppm: ≥ 70%

## CCN(C)C=Nc1cc(C)c(Oc2ccc(-c3ccccc3)cc2)cc1C [Compound 31, N′-[4-(biphenyl-4-yloxy)-2,5-dimethylphenyl]-N-ethyl-N-methylimidoformamide]
logP (acidic, pH 2.3); pH 2.3, logP acidic, acidic
  logP: 2.64

## CCN(C)C=Nc1cc(C)c(Oc2ccc(-c3ccccc3OCC(C)C)cc2)cc1C [Compound 29, N-ethyl-N′-{4-[(2′-isobutoxybiphenyl-4-yl)oxy]-2,5-dimethylphenyl}-N-methylimidoformamide]
logP (acidic, pH 2.3); pH 2.3, logP acidic, acidic
  logP: 3.14

## CCN(C)C=Nc1cc(C)c(Oc2ccc(-c3ccc(C(C)=O)cc3)cc2)cc1C [Compound 8, N′-{4-[(4′-acetylbiphenyl-4-yl)oxy]-2,5-dimethylphenyl}-N-ethyl-N-methylimidoformamide]
Uromyces appendiculatus; [2]
  pest or weed control at 10 ppm: ≥ 70%
Sphaerotheca fuliginea; [3]
  pest or weed control at 100 ppm: ≥ 70%
logP (acidic, pH 2.3); pH 2.3, logP acidic, acidic
  logP: 2.32
Podosphaera leucotricha; [5]
  pest or weed control at 100 ppm: ≥ 70%

## Cc1cc(Oc2ccc(Br)cc2)c(C)cc1N [4-(4-Bromophenoxy)-2,5-dimethylaniline]
logP (acidic, pH 2.3); pH 2.3, log P (pH 2.3), pH 2.3
  logP: 2.88

## Cc1cc(Oc2ccc(C3CCCC3)cc2)c(C)cc1/N=C/N1CCCCC1 [Compound 35, 4-(4-cyclopentylphenoxy)-2,5-dimethyl-N-[(1E)-piperidin-1-ylmethylene]aniline]
Puccinia recondita; [1]
  pest or weed control at 1000 ppm: ≥ 70%
Uromyces appendiculatus; [2]
  pest or weed control at 10 ppm: ≥ 70%
Sphaerotheca fuliginea; [3]
  pest or weed control at 100 ppm: ≥ 70%
Botrytis cinerea; [4]
  pest or weed control at 250 ppm: ≥ 70%
logP (acidic, pH 2.3); pH 2.3, logP acidic, acidic
  logP: 3.13

## 4-[(4′-fluorobiphenyl-4-yl)oxy]-2,5-dimethyl-N-[(1E)-pyrrolidin-1-ylmethylene]aniline [Compound 30]
logP (acidic, pH 2.3); acidic
  logP acidic: 2.62

## CCc1ccccc1-c1ccc(Oc2cc(C)c(/N=C/N3CCCCC3)cc2C)cc1 [Compound 23]
Puccinia recondita
  pest or weed control at 1000 ppm: ≥ 70%
Sphaerotheca fuliginea
  pest or weed control at 100 ppm: ≥ 70%
Botrytis cinerea
  pest or weed control at 250 ppm: ≥ 70%
logP (acidic, pH 2.3); pH 2.3
  logP: 3.34
Podosphaera leucotricha
  pest or weed control at 100 ppm: ≥ 70%

## Cc1cc(Oc2ccc(-c3ccccc3C(C)C)cc2)c(C)cc1/N=C/N1CCCCC1 [Compound 25]
Uromyces appendiculatus
  pest or weed control at 10 ppm: ≥ 70%
Sphaerotheca fuliginea
  pest or weed control at 100 ppm: ≥ 70%
Botrytis cinerea
  pest or weed control at 250 ppm: ≥ 70%
logP (acidic, pH 2.3); pH 2.3
  logP: 2.46
Podosphaera leucotricha
  pest or weed control at 100 ppm: ≥ 70%

## Cc1cc(Oc2ccc(-c3ccccc3C)cc2)c(C)cc1/N=C/N1CCCCC1 [Compound 24]
Puccinia recondita
  pest or weed control at 1000 ppm: ≥ 70%
Sphaerotheca fuliginea
  pest or weed control at 100 ppm: ≥ 70%
Botrytis cinerea
  pest or weed control at 250 ppm: ≥ 70%
logP (acidic, pH 2.3); pH 2.3
  logP: 3.22
Podosphaera leucotricha
  pest or weed control at 100 ppm: ≥ 70%

## Cc1cc(Oc2ccc(-c3ccccc3Cl)cc2)c(C)cc1/N=C/N1CCCCC1 [Compound 26]
Puccinia recondita
  pest or weed control at 1000 ppm: ≥ 70%
Sphaerotheca fuliginea
  pest or weed control at 100 ppm: ≥ 70%
Botrytis cinerea
  pest or weed control at 250 ppm: ≥ 70%
logP (acidic, pH 2.3); pH 2.3
  logP: 2.77
Podosphaera leucotricha
  pest or weed control at 100 ppm: ≥ 70%

## CCN(C)C=Nc1cc(C)c(Oc2ccc(-c3ccc(N(C)C)cc3)cc2)cc1C [Compound 4, N′-(4-{[4′-(dimethylamino)biphenyl-4-yl]oxy}-2,5-dimethylphenyl)-N-ethyl-N-methylimidoformamide]
logP (acidic, pH 2.3); pH 2.3, logP acidic, acidic
  logP: 2.13

## CCN(C)C=Nc1cc(C)c(Oc2ccc(-c3ccccc3C(C)C)cc2)cc1C [Compound 15]
Puccinia recondita
  pest or weed control at 1000 ppm: ≥ 70%
Sphaerotheca fuliginea
  pest or weed control at 100 ppm: ≥ 70%
Botrytis cinerea
  pest or weed control at 250 ppm: ≥ 70%
logP (acidic, pH 2.3); pH 2.3
  logP: 3.06
Podosphaera leucotricha
  pest or weed control at 100 ppm: ≥ 70%

## Cc1cc(Oc2ccc(C3CCCCC3)cc2)c(C)cc1N [4-(4-Cyclohexylphenoxy)-2,5-dimethylaniline]
logP (acidic, pH 2.3); pH 2.3, log P (pH 2.3), pH 2.3
  logP: 4.25

## Cc1cc(Oc2ccc(-c3ccccc3C(F)(F)F)cc2)c(C)cc1/N=C/N1CCCCC1 [Compound 20]
Puccinia recondita
  pest or weed control at 1000 ppm: ≥ 70%
Sphaerotheca fuliginea
  pest or weed control at 100 ppm: ≥ 70%
Botrytis cinerea
  pest or weed control at 250 ppm: ≥ 70%
logP (acidic, pH 2.3); pH 2.3
  logP: 2.93
Podosphaera leucotricha
  pest or weed control at 100 ppm: ≥ 70%

## CCN(C)C=Nc1cc(C)c(Oc2ccc(-c3ccc(C(F)(F)F)cc3)cc2)cc1C [Compound 3, N′-(2,5-dimethyl-4-{[4′-(trifluoromethyl)biphenyl-4-yl]oxy}phenyl)-N-ethyl-N-methylimidoformamide]
Puccinia recondita; [1]
  pest or weed control at 1000 ppm: ≥ 70%
Sphaerotheca fuliginea; [3]
  pest or weed control at 100 ppm: ≥ 70%
Botrytis cinerea; [4]
  pest or weed control at 250 ppm: ≥ 70%
logP (acidic, pH 2.3); pH 2.3, logP acidic, acidic
  logP: 2.94
Podosphaera leucotricha; [5]
  pest or weed control at 100 ppm: ≥ 70%

## CCCCO/N=C/c1ccc(-c2ccc(Oc3cc(C)c(N=CN(C)CC)cc3C)cc2)cc1 [Compound 10]
logP (acidic, pH 2.3); pH 2.3
  logP: 3.51

## CCN(C)C=Nc1cc(C)c(Oc2ccc(-c3ccc(S(=O)(=O)CC)cc3)cc2)cc1C [Compound 2, N-ethyl-N′-(4-{[4′-(ethylsulfonyl)biphenyl-4-yl]oxy}-2,5-dimethylphenyl)-N-methylimidoformamide]
Puccinia recondita; [1]
  pest or weed control at 1000 ppm: ≥ 70%
Uromyces appendiculatus; [2]
  pest or weed control at 10 ppm: ≥ 70%
Sphaerotheca fuliginea; [3]
  pest or weed control at 100 ppm: ≥ 70%
logP (acidic, pH 2.3); pH 2.3, logP acidic, acidic
  logP: 2.06
Podosphaera leucotricha; [5]
  pest or weed control at 100 ppm: ≥ 70%

## COc1ccc(-c2ccc(Oc3cc(C)c(N)cc3C)cc2)cc1 [4-[4-(4-Methoxyphenyl)phenoxy]-2,5-dimethylaniline]
logP (acidic, pH 2.3); pH 2.3, log P (pH 2.3), pH 2.3
  logP: 3.06

## CCN(C)C=Nc1cc(C)c(Oc2ccc(-c3ccc(/C=N/OC)cc3)cc2)cc1C [Compound 12]
logP (acidic, pH 2.3); pH 2.3
  logP: 2.75
